Source: PMC12706144, “Potential Antidiabetic Inhibitors and Antimicrobials from the Fungus Fusarium lichenicola Isolated from the Cicada Cryptotympana mandarina Distant, 1891” (Journal of Microbiology and Biotechnology, 2025)

Assays:
[1] = system: S. aureus, B. subtilis, E. coli, S. cerevisiae; conditions: cited from earlier work
[2] = system: various bacterial pathogens; set-up: method as in PMID 34394014; conditions: cited from earlier work
α-glucosidase = α-glucosidase (Saccharomyces cerevisiae, UniProt P53341); type: biochemical; conditions: Table 4, reference compounds, independent experiment; read-out: IC50, α-Glucosidase inhibition
α-amylase = target: T1, α-amylase (Sus scrofa, UniProt P00690); assay: α-Amylase inhibitory assay (starch azure); type: biochemical; conditions: Table 4, reference compounds, independent experiment; read-out: IC50, α-Amylase inhibition
T1 sequence (P00690 16-511): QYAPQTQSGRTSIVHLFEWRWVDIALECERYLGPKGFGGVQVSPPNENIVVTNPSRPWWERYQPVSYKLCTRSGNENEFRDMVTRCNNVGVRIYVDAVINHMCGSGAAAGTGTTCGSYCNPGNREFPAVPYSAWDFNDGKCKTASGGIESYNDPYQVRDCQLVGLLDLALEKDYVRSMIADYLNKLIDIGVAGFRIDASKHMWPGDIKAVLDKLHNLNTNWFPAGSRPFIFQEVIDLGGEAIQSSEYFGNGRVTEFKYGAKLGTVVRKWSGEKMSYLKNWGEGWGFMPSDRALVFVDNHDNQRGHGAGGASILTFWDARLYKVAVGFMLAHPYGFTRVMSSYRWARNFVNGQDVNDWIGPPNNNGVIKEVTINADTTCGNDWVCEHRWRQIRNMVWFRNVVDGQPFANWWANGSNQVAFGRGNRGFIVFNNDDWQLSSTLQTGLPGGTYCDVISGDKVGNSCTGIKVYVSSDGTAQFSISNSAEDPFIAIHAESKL

[3] = system: S. aureus, B. subtilis, E. coli, and Klebsiella pneumoniae; conditions: cited from earlier work
[4] = system: Gram-positive and Gram-negative bacteria and fungi; conditions: cited from earlier work

α-glucosidase, sequence (P53341 whole entry, looked up): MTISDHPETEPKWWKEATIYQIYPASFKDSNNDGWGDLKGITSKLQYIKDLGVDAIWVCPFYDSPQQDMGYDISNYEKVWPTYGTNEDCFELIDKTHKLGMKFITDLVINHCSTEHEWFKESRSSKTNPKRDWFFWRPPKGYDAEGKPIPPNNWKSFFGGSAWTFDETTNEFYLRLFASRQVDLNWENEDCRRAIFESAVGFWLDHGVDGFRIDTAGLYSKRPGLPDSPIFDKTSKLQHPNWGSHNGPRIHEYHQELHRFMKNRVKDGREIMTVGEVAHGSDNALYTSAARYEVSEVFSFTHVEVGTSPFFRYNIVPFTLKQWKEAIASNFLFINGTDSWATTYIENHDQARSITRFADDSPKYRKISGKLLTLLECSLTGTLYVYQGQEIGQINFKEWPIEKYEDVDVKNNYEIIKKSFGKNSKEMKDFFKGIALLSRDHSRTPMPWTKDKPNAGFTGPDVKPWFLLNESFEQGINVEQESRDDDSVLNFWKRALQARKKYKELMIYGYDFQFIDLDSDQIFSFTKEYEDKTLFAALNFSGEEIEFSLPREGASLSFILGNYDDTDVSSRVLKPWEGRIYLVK

In the case of `C=C(C)C1CC=C(C)CC1` (stereo not drawn) [C4, 4-Isopropenyl-1-methylcyclohexene], the MICs [1] is given as 0.5 to 1.0 µg/mL.

For `CSSSC` [C11, Dimethyltrisulfane], the antimicrobial activity [2] is given as “promising antimicrobial activity”, the IC50 (α-glucosidase) is given as 462 ± 44 µM and the IC50 (α-amylase) is given as 332 ± 23 µM.

In the case of `CCCCCCCCCCCCCCCC(=O)O` [C21, n-Hexadecanoic acid], the antibacterial effects [3] is given as “good antibacterial effects”.

For `CCCCCC/C=C\CCCCCCCC(=O)O` [C22, Palmitoleic acid], the antimicrobial activity [4] is given as “antimicrobial activity”.
